In ChEMBL document CHEMBL1201862, “PubChem BioAssay data set” (2004):
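Briefly, cells in 96-well plates were exposed to five compound concentrations for 48 h, and endpoints were estimated by linear interpolation. Here, GI50 denotes the concentration required for 50% inhibition of growth.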 The source made the active and inactive calls. No stated cut-off is given here; in the data, active = GI50 up to about 1.1 µM and inactive = higher.

Tests used:
Assay in all cases: NCI tumour cell line growth inhibition, 48 h
[1] = system: A549
[2] = system: HCC 2998
[3] = system: HCT-15
[4] = system: HL-60
[5] = system: HOP-92
[6] = system: HT-29
[7] = system: K562
[8] = system: M14
[9] = system: MCF7
[10] = system: MDA-N
[11] = system: MOLT-4
[12] = system: NCI-H226
[13] = system: SK-MEL-2
[14] = system: SK-OV-3
[15] = system: SN12C
[16] = system: SNB-75
[17] = system: SR
[18] = system: U-251
[19] = system: UACC-257
[20] = system: SF-295

Row | Compound | GI50 [1] | GI50 [2] | GI50 [3] | GI50 [4] | GI50 [5] | GI50 [6] | GI50 [7] | GI50 [8] | GI50 [9] | GI50 [10] | GI50 [11] | GI50 [12] | GI50 [13] | GI50 [14] | GI50 [15] | GI50 [16] | GI50 [17] | GI50 [18] | GI50 [19] | GI50 [20]
1 | COc1cc2ccc1OCc1cccc(n1)COc1ccc(cc1OC)/C=N\CCNCCNCC/N=C\2 | > 100 µM (inactive) | > 100 µM (inactive) | > 100 µM | 53.5 µM (inactive) | > 100 µM (inactive) | > 100 µM (inactive) | > 100 µM (inactive) | > 100 µM (inactive) | 49 µM (inactive) | > 100 µM (inactive) | 46.5 µM (inactive) | > 100 µM (inactive) | > 100 µM (inactive) | > 100 µM (inactive) | > 100 µM (inactive) | > 100 µM (inactive) | > 100 µM (inactive) | > 100 µM (inactive) | > 100 µM (inactive) | 
2 | COc1cc(=O)n2c3ccccc3n(C)c2c1C#N | > 100 µM (inactive) | > 100 µM (inactive) | > 100 µM | > 100 µM (inactive) | > 100 µM (inactive) | 74.3 µM (inactive) | > 100 µM (inactive) | > 100 µM (inactive) | > 100 µM (inactive) | > 100 µM (inactive) | 45.3 µM (inactive) | > 100 µM (inactive) | > 100 µM (inactive) | > 100 µM (inactive) | > 100 µM (inactive) | > 100 µM (inactive) | > 100 µM (inactive) | > 100 µM (inactive) | > 100 µM (inactive) | 22.6 µM (inactive)
3 | N#Cc1nc(-c2cccs2)oc1N | > 100 µM (inactive) | > 100 µM (inactive) | > 100 µM | 56.8 µM (inactive) | 90.2 µM (inactive) | > 100 µM (inactive) | > 100 µM (inactive) | > 100 µM (inactive) | 83.2 µM (inactive) | > 100 µM (inactive) | > 100 µM (inactive) | > 100 µM (inactive) | > 100 µM (inactive) | > 100 µM (inactive) | > 100 µM (inactive) | 92.3 µM (inactive) | > 100 µM (inactive) | > 100 µM (inactive) | > 100 µM (inactive) | > 100 µM (inactive)
4 | O=c1c2cc(I)ccc2nc(SCc2nncs2)n1Cc1ccccc1 | 22.9 µM (inactive) | 16.4 µM (inactive) | 50.2 µM | 22.1 µM (inactive) | 3.34 µM (inactive) | 31.8 µM (inactive) | 16.7 µM (inactive) | 9.06 µM (inactive) | 35.6 µM (inactive) | 23 µM (inactive) | 8.3 µM (inactive) | 23.8 µM (inactive) | 16.1 µM (inactive) | 43.7 µM (inactive) | 23.9 µM (inactive) | 19.1 µM (inactive) | 15.4 µM (inactive) | 16.9 µM (inactive) | 10.5 µM (inactive) | 13.2 µM (inactive)
5 | O=[N+]([O-])/C(Cl)=C(\NCCN/C(C(Cl)=C(Cl)Cl)=C(/Cl)[N+](=O)[O-])C(Cl)=C(Cl)Cl | 45.2 µM (inactive) | 83.6 µM (inactive) | 36.6 µM | 25.6 µM (inactive) | 17.9 µM (inactive) |  | 27.8 µM (inactive) | 61.1 µM (inactive) | 47.6 µM (inactive) | 82.2 µM (inactive) | 22 µM (inactive) | > 100 µM (inactive) |  | 69.5 µM (inactive) | 70.5 µM (inactive) | 35.5 µM (inactive) | 17.1 µM (inactive) | 48.8 µM (inactive) |  | 39.7 µM (inactive)
6 | CC(C)=CCC[C@@H](C)C1=C(O)C(=O)C(C)=C(Nc2ccccc2Br)C1=O | 17.8 µM (inactive) | 30.4 µM (inactive) | 6.65 µM | 2.73 µM (inactive) | 11.6 µM (inactive) | 19.6 µM (inactive) | 10.8 µM (inactive) | 15.2 µM (inactive) | 18.2 µM (inactive) | 14.1 µM (inactive) | 4.09 µM (inactive) | 14.7 µM (inactive) | 13.3 µM (inactive) | 17.5 µM (inactive) | 12.5 µM (inactive) | 15.4 µM (inactive) | 9.66 µM (inactive) | 8.91 µM (inactive) | 14.9 µM (inactive) | 3.85 µM (inactive)
7 | O=C(CCl)Nc1ccc(-c2nc3ccccc3s2)cc1 | 10 µM (inactive) | 2.51 µM (inactive) | 2.18 µM | 1.91 µM (inactive) | 2.36 µM (inactive) | 2.39 µM (inactive) | 1.91 µM (inactive) | 1.97 µM (inactive) | 0.184 µM (active) | 2.49 µM (inactive) | 1.74 µM (inactive) | 1.43 µM (inactive) | 2.65 µM (inactive) | 4.78 µM (inactive) | 1.87 µM (inactive) | 4.06 µM (inactive) | 1.46 µM (inactive) | 1.64 µM (inactive) | 5.66 µM (inactive) | 6.92 µM (inactive)
8 | CCCCn1c(C)c(C(=O)OCC)c2cc(OCc3ccc(C(=O)Nn4c(C)ccc4C)cc3)c(Br)cc21 | > 100 µM (inactive) | > 100 µM (inactive) | > 100 µM | > 100 µM (inactive) | > 100 µM (inactive) | > 100 µM (inactive) | > 100 µM (inactive) | > 100 µM (inactive) | > 100 µM (inactive) | > 100 µM (inactive) | > 100 µM (inactive) | > 100 µM (inactive) | > 100 µM (inactive) | > 100 µM (inactive) | > 100 µM (inactive) | > 100 µM (inactive) | > 100 µM (inactive) | > 100 µM (inactive) | > 100 µM (inactive) | > 100 µM (inactive)
9 | c1ccc(C2=Nc3cccc4cccc(c34)N2)cc1 | 56.9 µM (inactive) | 43.9 µM (inactive) | 28.6 µM | 2.88 µM (inactive) | 24.4 µM (inactive) | 43.5 µM (inactive) | 32 µM (inactive) | 44.7 µM (inactive) | 40.8 µM (inactive) | 45.3 µM (inactive) |  | > 78.3 µM (inactive) | > 46.3 µM (inactive) | > 100 µM (inactive) | > 78.7 µM (inactive) | > 90.6 µM (inactive) | 9.48 µM (inactive) | > 100 µM (inactive) | > 69.5 µM (inactive) | 58.2 µM (inactive)
10 | N#Cc1nc(-c2cccc(-c3nc(C#N)c(N)o3)n2)oc1N | > 100 µM (inactive) | > 100 µM (inactive) | > 100 µM | 64.7 µM (inactive) | > 100 µM (inactive) | > 100 µM (inactive) | > 100 µM (inactive) | > 100 µM (inactive) | > 100 µM (inactive) | > 100 µM (inactive) | > 100 µM (inactive) | > 100 µM (inactive) | > 100 µM (inactive) | > 100 µM (inactive) | > 100 µM (inactive) | > 100 µM (inactive) | > 100 µM (inactive) | > 100 µM (inactive) | > 100 µM (inactive) | > 100 µM (inactive)
11 | C=CC1(c2ccc3ccccc3c2)OCC(CC)O1 (stereo not drawn) | 47.9 µM (inactive) | 94.2 µM (inactive) | 45.6 µM | 4.37 µM (inactive) | 36.7 µM (inactive) | 29.6 µM (inactive) | 13.9 µM (inactive) | 61.1 µM (inactive) | 55 µM (inactive) | 24.8 µM (inactive) | 25.6 µM (inactive) | 25.5 µM (inactive) | 15.6 µM (inactive) | > 100 µM (inactive) | 36.7 µM (inactive) | 30 µM (inactive) | 19.8 µM (inactive) | 57 µM (inactive) | 60.4 µM (inactive) | 61.5 µM (inactive)
12 | CCC(C#N)N(Cc1cccc(CN(C(C)=O)C(C#N)CC)c1)C(C)=O (stereo not drawn) | > 100 µM (inactive) | 97.1 µM (inactive) | 42.9 µM | > 100 µM (inactive) | 6.56 µM (inactive) | 7.57 µM (inactive) | > 100 µM (inactive) | > 100 µM (inactive) | > 100 µM (inactive) | > 100 µM (inactive) | 5.52 µM (inactive) | 44.5 µM (inactive) | > 100 µM (inactive) | > 100 µM (inactive) | > 100 µM (inactive) | 12 µM (inactive) | 77.8 µM (inactive) | > 100 µM (inactive) | > 100 µM (inactive) | > 100 µM (inactive)
13 | CC(=O)O[C@H]1CC[C@@]2(C)C(=CC[C@@H]3[C@@H]2CC[C@]2(C)c4c(cc(C#N)c(=N)n4C(C)=O)C[C@@H]32)C1 | 23 µM (inactive) | 23.2 µM (inactive) | 15.2 µM | 14.6 µM (inactive) | 14.7 µM (inactive) | 17.9 µM (inactive) | 4.06 µM (inactive) | 16.9 µM (inactive) | 22.3 µM (inactive) | 21 µM (inactive) | 12.2 µM (inactive) | 27.4 µM (inactive) |  | 6.7 µM (inactive) | 17.4 µM (inactive) | 19.1 µM (inactive) | 23.8 µM (inactive) | 29 µM (inactive) | 19.1 µM (inactive) | 11.4 µM (inactive)
14 | CSc1cc(-c2ccccn2)nc(-c2ccccn2)c1 | 0.137 µM (active) | 0.0518 µM (active) | 0.0324 µM | 0.0492 µM (active) | 0.0959 µM (active) | 0.149 µM (active) | 0.248 µM (active) | 0.0695 µM (active) | 0.324 µM (active) | 0.452 µM (active) | 0.0421 µM (active) | 0.0395 µM (active) | 0.552 µM (active) | 0.255 µM (active) | 0.0991 µM (active) | 0.689 µM (active) | 0.0405 µM (active) | 0.0766 µM (active) | 0.481 µM (active) | 0.0566 µM (active)
15 | N#Cc1c(-c2nc3ccccc3s2)c(=O)oc2cc(O)ccc12 | 26.9 µM (inactive) | 30.3 µM (inactive) | 27.1 µM | 23.5 µM (inactive) | 3.52 µM (inactive) | 13 µM (inactive) | 31.8 µM (inactive) | 35.2 µM (inactive) | 34.5 µM (inactive) | 33.1 µM (inactive) | 28 µM (inactive) | 41 µM (inactive) | 49.7 µM (inactive) |  | 42.3 µM (inactive) | > 100 µM (inactive) | 37.3 µM (inactive) | 18 µM (inactive) | 24.3 µM (inactive) | 36.4 µM (inactive)
